According to patent US20170037028A1 (BAYER PHARMA AKTIENGESELLSCHAFT, priority 2013, published 2017):

The compounds below were run against T1, GLUT1 (Homo sapiens, UniProt P11166) (assay: Indirect measurement of GLUT1 activity by quantification of intracellular ATP levels (glucose induced ATP increase)). Settings: DLD1 cells; 0.1 mM glucose, 1 μM Rotenone, 15 min; CellTiter-Glo ATP readout; IC50 values standardized to cytochalasin B IC50 values; read-out: IC50 regarding glucose induced ATP increase (GLUT1 inhibition).
T1 sequence (P11166 1-492): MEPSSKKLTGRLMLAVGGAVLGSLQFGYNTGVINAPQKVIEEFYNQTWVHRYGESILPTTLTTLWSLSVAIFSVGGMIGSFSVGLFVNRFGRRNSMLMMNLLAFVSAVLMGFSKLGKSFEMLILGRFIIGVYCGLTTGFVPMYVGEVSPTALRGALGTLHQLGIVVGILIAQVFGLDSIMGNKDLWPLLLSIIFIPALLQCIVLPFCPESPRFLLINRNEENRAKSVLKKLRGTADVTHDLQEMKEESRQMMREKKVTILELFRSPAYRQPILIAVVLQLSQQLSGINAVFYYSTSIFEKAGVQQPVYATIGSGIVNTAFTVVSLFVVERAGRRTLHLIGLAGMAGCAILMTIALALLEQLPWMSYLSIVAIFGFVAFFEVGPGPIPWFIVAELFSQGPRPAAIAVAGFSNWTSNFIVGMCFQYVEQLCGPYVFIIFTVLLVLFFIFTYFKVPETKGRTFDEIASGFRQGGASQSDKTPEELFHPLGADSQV
Assay type: cell-based
Set-up: endogenous in cells; host or cells: DLD1 or CHO-K1
In short: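 Intracellular ATP was measured by CellTiter-Glo luminescence as an indirect readout of transport: glucose-driven for GLUT1, fructose-driven for GLUT2. DLD1 or CHO-K1 cells were used alongside an oxidative phosphorylation inhibitor. Beforehand, cells were held overnight in glucose-free 1% FCS medium to deplete ATP.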

Structure (SMILES) | IC50 [µM]
Cc1c(NC(=O)c2cc(C(N)=O)nc3cc(F)ccc23)c(C(F)(F)F)nn1Cc1cccc(C#N)c1 [Example 1578] | 0.025

Same assay, conditions: read-out: IC50 regarding glucose induced ATP increase (GLUT1 inhibition)

Structure (SMILES) | IC50 [µM]
Cc1cnc2ccccc2c1C(=O)Nc1c(C)nn(Cc2ccc(F)cc2)c1C [Example 1252] | 1.87
Cc1nn(Cc2ccc(F)cc2)c(C)c1NC(=O)c1cc(C(F)(F)F)nc2cc(C(F)(F)F)ccc12 [Example 1276] | 3.81
Cc1ccc2nc(C)cc(C(=O)Nc3c(C)nn(Cc4ccccc4F)c3C)c2c1 [Example 112, N-[1-(2-fluorobenzyl)-3,5-dimethyl-1H-pyrazol-4-yl]-2,6-dimethylquinoline-4-carboxamide] | 0.771
Cc1ccc2nc(C)cc(C(=O)Nc3c(C)nn(Cc4ccccc4)c3C)c2c1 [Example 92, N-(1-benzyl-3,5-dimethyl-1H-pyrazol-4-yl)-2,6-dimethylquinoline-4-carboxamide] | 0.292
CC(=O)c1cccc(Cn2nc(C)c(NC(=O)c3cc(C(N)=O)nc4ccccc34)c2C)c1 [Example 1626] | 0.107
Cc1nn(Cc2ccc(F)cc2)c(C)c1NC(=O)c1cc(C(F)(F)F)nc2c(F)cccc12 [Example 85, 8-fluoro-N-[1-(4-fluorobenzyl)-3,5-dimethyl-1H-pyrazol-4-yl]-2-(trifluoromethyl)quinoline-4-carboxamide] | 0.257
COc1ccc2nc(O)cc(C(=O)Nc3c(C)nn(Cc4ccc(F)cc4)c3C)c2c1 [Example 75, N-[1-(4-fluorobenzyl)-3,5-dimethyl-1H-pyrazol-4-yl]-2-hydroxy-6-methoxyquinoline-4-carboxamide] | 0.182
CCOC(=O)N=S(C)(=O)c1ccc(Cn2nc(C)c(NC(=O)c3cc(C(F)(F)F)nc4ccc(Br)cc34)c2C)cc1 (racemic) [Example 1433] | 0.717
Cc1ccc2nc(C)cc(C(=O)Nc3c(C)nn(Cc4ccc(C(C)(C)C)cc4)c3C)c2c1 [Example 1290] | 7.11
Cc1nn(Cc2ccc(CC(=O)NCCN3CCOCC3)cc2)c(C)c1NC(=O)c1cc(C(F)(F)F)nc2ccc(Br)cc12 [Example 1240] | 1.5
Cc1nc(Cn2nc(C)c(NC(=O)c3cc(C(F)(F)F)nc4ccc(Br)cc34)c2C)cs1 [Example 1354] | 0.0489
Cc1c(NC(=O)c2cc(C(N)=O)nc3ccccc23)c(C(=O)N(C)C)nn1Cc1ccc(F)cc1 [Example 1214] | 0.622
COc1cc(C(=O)Nc2c(C)nn(Cc3ccccc3F)c2C)c2ccccc2n1 [Example 77, N-[1-(2-fluorobenzyl)-3,5-dimethyl-1H-pyrazol-4-yl]-2-methoxyquinoline-4-carboxamide] | 0.204
Cc1c(NC(=O)c2cc(C(N)=O)nc3cc(F)c(Cl)cc23)c(C(F)(F)F)nn1Cc1cc(C#N)no1 [Example 1673] | 0.0561
COc1ccc(CCCn2nc(C)c(NC(=O)c3cc(C(F)(F)F)nc4ccc(Br)cc34)c2C)cc1 [Example 1165] | 0.168
Cc1nn(Cc2ccc(C(=O)N3CCOCC3)cn2)c(C)c1NC(=O)c1cc(C(F)(F)F)nc2ccc(Br)cc12 [Example 1234] | 1.18
Cc1ccc(CCNC(=O)c2ccc(Cn3nc(C)c(NC(=O)c4cc(C(F)(F)F)nc5ccc(Br)cc45)c3C)cc2)cc1 [Example 1210] | 0.572
COc1cccc(Cn2nc(C)c(NC(=O)c3cc(C(F)(F)F)nc4ccc(Br)cc34)c2C)c1 [Example 97, 6-bromo-N-[1-(3-methoxybenzyl)-3,5-dimethyl-1H-pyrazol-4-yl]-2-(trifluoromethyl)quinoline-4-carboxamide] | 0.354
Cc1c(NC(=O)c2cc(C(N)=O)nc3cc(F)ccc23)c(C(F)(F)F)nn1Cc1cc(C(C)C)no1 [Example 1553] | 0.159
Cc1nn(C[C@@H]2CCC(=O)N2)c(C)c1NC(=O)c1cc(C(F)(F)F)nc2ccc(Br)cc12 [Example 1266] | 2.49

Next, values leading:

IC50 [µM] | Structure (SMILES)
0.0473 | Cc1cc(Cn2nc(C(F)(F)F)c(NC(=O)c3cc(C(N)=O)nc4cc(F)ccc34)c2C)no1 [Example 1539]
0.0411 | Cc1nn(Cc2ccc(C(=O)NC(C)(CO)CO)cc2)c(C)c1NC(=O)c1cc(C(F)(F)F)nc2ccc(Br)cc12 [Example 1096]
0.036 | Cc1nn(Cc2ccc(C(=O)NCCCn3ccnc3)cc2)c(C)c1NC(=O)c1cc(C(F)(F)F)nc2ccc(Br)cc12 [Example 1091]
0.0296 | Cc1nn(Cc2ccc(C(=O)O)cc2)c(C)c1NC(=O)c1cc(C(N)=O)nc2cc(F)ccc12 [Example 1423]
0.0281 | Cc1nn(Cc2cccc(C#N)n2)c(C)c1NC(=O)c1cc(C(N)=O)nc2cccc(F)c12 [Example 1709]
0.0258 | Cc1nn(Cc2ccc(C(=O)NCC(F)F)cc2)c(C)c1NC(=O)c1cc(C(F)(F)F)nc2ccc(Br)cc12 [Example 1080]
0.0205 | Cc1c(NC(=O)c2cc(C(F)(F)F)nc3ccc(Br)cc23)c(C(F)(F)F)nn1Cc1ccc(F)cc1 [Example 32, 6-bromo-N-[1-(4-fluorobenzyl)-5-methyl-3-(trifluoromethyl)-1H-pyrazol-4-yl]-2-(trifluoromethyl)quinoline-4-carboxamide]
0.0186 | Cc1nn(Cc2ccc(C(=O)Nc3ccccn3)cc2)c(C)c1NC(=O)c1cc(C(F)(F)F)nc2ccc(Br)cc12 [Example 1064]
0.0153 | CC(=O)c1cccc(Cn2nc(C(F)(F)F)c(NC(=O)c3cc(C(N)=O)nc4cc(F)c(Cl)cc34)c2C)c1 [Example 1621]
0.0139 | Cc1c(NC(=O)c2cc(C(N)=O)nc3cccc(F)c23)c(C(F)(F)F)nn1Cc1ccc(S(C)(=O)=O)cc1 [Example 1437]
0.0117 | COC(=O)c1ccc2nc(C(F)(F)F)cc(C(=O)Nc3c(C)nn(Cc4ccc(F)cc4)c3C)c2c1 [Example 149, methyl 4-{[1-(4-fluorobenzyl)-3,5-dimethyl-1H-pyrazol-4-yl]carbamoyl}-2-(trifluoromethyl)quinoline-6-carboxylate]
0.01 | COCc1ccc(Cn2nc(C(F)(F)F)c(NC(=O)c3cc(C(N)=O)nc4cc(F)ccc34)c2C)cc1 [Example 401, 7-fluoro-N^4-{1-[4-(methoxymethyl)benzyl]-5-methyl-3-(trifluoromethyl)-1H-pyrazol-4-yl}quinoline-2,4-dicarboxamide]
0.0097 | Cc1nn(Cc2ccc(C#N)cc2)c(C)c1NC(=O)c1cc(C(N)=O)nc2ccccc12 [Example 259, N^4-[1-(4-cyanobenzyl)-3,5-dimethyl-1H-pyrazol-4-yl]quinoline-2,4-dicarboxamide]
0.0065 | Cc1cc(F)ccc1Cn1nc(C(F)(F)F)c(NC(=O)c2cc(C(N)=O)nc3cc(F)c(Cl)cc23)c1C [Example 1712]
0.0065 | Cc1nn(Cc2ccc(C(F)(F)F)cc2)c(C)c1NC(=O)c1cc(C(N)=O)nc2cc(F)ccc12 [Example 1599]
0.0064 | Cc1nn(Cc2ccc(F)cc2)c(C)c1NC(=O)c1cc(C2CC2)nc2ccc(F)cc12 [Example 10, 2-cyclopropyl-6-fluoro-N-[1-(4-fluorobenzyl)-3,5-dimethyl-1H-pyrazol-4-yl]quinoline-4-carboxamide]
0.0055 | Cc1c(NC(=O)c2cc(C(F)(F)F)nc3ccc(Br)cc23)c(C(F)(F)F)nn1Cc1ccc(C#N)cn1 [Example 362, 6-bromo-N-{1-[(5-cyanopyridin-2-yl)methyl]-5-methyl-3-(trifluoromethyl)-1H-pyrazol-4-yl}-2-(trifluoromethyl)quinoline-4-carboxamide]
0.0046 | Cc1c(NC(=O)c2cc(C(N)=O)nc3ccccc23)c(C(F)(F)F)nn1Cc1ccc(F)cc1 [Example 130, N^4-[1-(4-fluorobenzyl)-5-methyl-3-(trifluoromethyl)-1H-pyrazol-4-yl]quinoline-2,4-dicarboxamide]
0.0026 | Cc1nn(Cc2ccccc2C#N)c(C)c1NC(=O)c1cc(C(N)=O)nc2cccc(F)c12 [Example 267, N^4-[1-(2-cyanobenzyl)-3,5-dimethyl-1H-pyrazol-4-yl]-5-fluoroquinoline-2,4-dicarboxamide]
0.0025 | Cc1c(NC(=O)c2cc(C(N)=O)nc3ccccc23)c(C(F)(F)F)nn1Cc1ccc(CC(F)(F)F)cc1 [Example 1717]
0.0021 | CCS(=O)(=O)N1CCC(Cn2nc(C)c(NC(=O)c3cc(C(N)=O)nc4ccccc34)c2C)CC1 [Example 407, N^4-(1-{[1-(ethylsulfonyl)piperidin-4-yl]methyl}-3,5-dimethyl-1H-pyrazol-4-yl)quinoline-2,4-dicarboxamide]
0.0014 | COc1ccc(Cn2nc(C(F)(F)F)c(NC(=O)c3cc(C(N)=O)nc4cc(F)c(Cl)cc34)c2C)cc1 [Example 278, 6-chloro-7-fluoro-N^4-[1-(4-methoxybenzyl)-5-methyl-3-(trifluoromethyl)-1H-pyrazol-4-yl]quinoline-2,4-dicarboxamide]
0.001 | Cc1c(NC(=O)c2cc(C(N)=O)nc3ccc(Br)cc23)c(C(F)(F)F)nn1Cc1ccccc1C#N [Example 274, 6-bromo-N^4-[1-(2-cyanobenzyl)-5-methyl-3-(trifluoromethyl)-1H-pyrazol-4-yl]quinoline-2,4-dicarboxamide]
